Experimental data taken from patent US9637453B2, “3-spirocyclic-6-hydroxamic acid tetralins as HDAC inhibitors” (Forma Therapeutics, Inc., priority 2015, dated 2017).

Experiments:
[1] = biological target: T1, Full length human recombinant HDAC11 (Homo sapiens, UniProt Q96DB2); assay: In vitro histone deacetylase assay, enzymatic HDAC11 (electrophoretic mobility shift assay); format: biochemical; settings: 10 nM HDAC11; 2 μM peptide substrate FAM-RHKK(tri-fluor-Ac)—NH2; 25° C.; 12 concentrations; read-out: HDAC11 Activity Range (IC50)
T1 construct: Full length human recombinant HDAC6 and HDAC11 proteins were expressed in baculoviral system
T1 sequence (Q96DB2 1-347): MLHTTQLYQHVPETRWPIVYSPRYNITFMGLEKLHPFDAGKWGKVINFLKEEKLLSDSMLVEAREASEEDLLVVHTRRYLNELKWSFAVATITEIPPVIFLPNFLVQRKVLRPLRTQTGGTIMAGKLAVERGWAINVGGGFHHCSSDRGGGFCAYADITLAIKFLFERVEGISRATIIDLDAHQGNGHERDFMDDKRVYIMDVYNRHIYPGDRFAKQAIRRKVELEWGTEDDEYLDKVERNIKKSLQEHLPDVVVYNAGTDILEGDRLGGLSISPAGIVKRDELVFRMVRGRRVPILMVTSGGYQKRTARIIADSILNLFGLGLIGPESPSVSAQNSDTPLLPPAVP
Method: (§1) The enzymatic HDAC6 and HDAC11 assays were performed using electrophoretic mobility shift assay. Full length human recombinant HDAC6 and HDAC11 proteins were expressed in baculoviral system and purified by affinity chromatography. The enzymatic reactions were assembled in 384 well plates in a total volume of 25 μL in a reaction buffer composing: 100 mM HEPES, pH 7.5, 25 mM KCl, 0.1% bovine serum albumin, 0.01% Triton X-100, 1% DMSO (from compounds) 2 μM of the fluorescently labeled peptide substrate and enzyme. The enzymes were added at a final concentration of 1 nM for HDAC6, and 10 nM for HDAC11. The peptide substrate FAM-RHKK(Ac)—NH2 was used for HDAC6, and FAM-RHKK(tri-fluor-Ac)—NH2 for HDAC11. The compounds were tested at 12 concentrations spaced by 3× dilution intervals. Negative control samples (0%-inhibition in the absence of inhibitor) and positive control samples (100%-inhibition) were assembled in replicates of four in each assay plate. The reactions were incubated at 25° C. and quenched by the addition of 45 μL of termination buffer (100 mM HEPES, pH 7.5, 0.01% Triton X-100, 0.05% SDS).
(§2) The terminated assay plates were analyzed on LabChip® 3000 microfluidic electrophoresis instrument (Perkin Elmer/Caliper Life Sciences). The fluorescence intensity of the electrophoretically separated de-acetylated product and substrate peptide was measured. Activity in each sample was determined as the product to sum ratio (PSR): P/(S+P), where P is the peak height of the product peptide and S is the peak height of the substrate peptide. Percent inhibition (Pinh) is determined using following equation:
(§3) Pinh=(PSR0%−PSRinh)/(PSR0%−PSR100%)*100, where PSRinh is the product sum ratio in the presence of inhibitor, PSR0% is the average product sum ration in the absence of inhibitor and PSR100% is the average product sum ratio in 100%-inhibition control samples. The IC50 values of inhibitors were determined by fitting the %-inhibition curves with 4 parameter dose-response model using XLfit 4 software.
(§4) As set forth in Table-26 and Table-27, below, IC5o values are defined as follows: IC50≦0.1 μM (+++); IC50>0.1 μM and ≦0.5 μM (++); IC50>0.5 μM (+).

[2] = biological target: T2, Full length human recombinant HDAC6 (Homo sapiens, UniProt Q9UBN7); assay: In vitro histone deacetylase assay, enzymatic HDAC6 (electrophoretic mobility shift assay); format: biochemical; settings: 1 nM HDAC6; 2 μM peptide substrate FAM-RHKK(Ac)—NH2; 25° C.; 12 concentrations; read-out: HDAC6 Activity Range (IC50)
T2 construct: Full length human recombinant HDAC6 and HDAC11 proteins were expressed in baculoviral system
T2 sequence (Q9UBN7 1-1215): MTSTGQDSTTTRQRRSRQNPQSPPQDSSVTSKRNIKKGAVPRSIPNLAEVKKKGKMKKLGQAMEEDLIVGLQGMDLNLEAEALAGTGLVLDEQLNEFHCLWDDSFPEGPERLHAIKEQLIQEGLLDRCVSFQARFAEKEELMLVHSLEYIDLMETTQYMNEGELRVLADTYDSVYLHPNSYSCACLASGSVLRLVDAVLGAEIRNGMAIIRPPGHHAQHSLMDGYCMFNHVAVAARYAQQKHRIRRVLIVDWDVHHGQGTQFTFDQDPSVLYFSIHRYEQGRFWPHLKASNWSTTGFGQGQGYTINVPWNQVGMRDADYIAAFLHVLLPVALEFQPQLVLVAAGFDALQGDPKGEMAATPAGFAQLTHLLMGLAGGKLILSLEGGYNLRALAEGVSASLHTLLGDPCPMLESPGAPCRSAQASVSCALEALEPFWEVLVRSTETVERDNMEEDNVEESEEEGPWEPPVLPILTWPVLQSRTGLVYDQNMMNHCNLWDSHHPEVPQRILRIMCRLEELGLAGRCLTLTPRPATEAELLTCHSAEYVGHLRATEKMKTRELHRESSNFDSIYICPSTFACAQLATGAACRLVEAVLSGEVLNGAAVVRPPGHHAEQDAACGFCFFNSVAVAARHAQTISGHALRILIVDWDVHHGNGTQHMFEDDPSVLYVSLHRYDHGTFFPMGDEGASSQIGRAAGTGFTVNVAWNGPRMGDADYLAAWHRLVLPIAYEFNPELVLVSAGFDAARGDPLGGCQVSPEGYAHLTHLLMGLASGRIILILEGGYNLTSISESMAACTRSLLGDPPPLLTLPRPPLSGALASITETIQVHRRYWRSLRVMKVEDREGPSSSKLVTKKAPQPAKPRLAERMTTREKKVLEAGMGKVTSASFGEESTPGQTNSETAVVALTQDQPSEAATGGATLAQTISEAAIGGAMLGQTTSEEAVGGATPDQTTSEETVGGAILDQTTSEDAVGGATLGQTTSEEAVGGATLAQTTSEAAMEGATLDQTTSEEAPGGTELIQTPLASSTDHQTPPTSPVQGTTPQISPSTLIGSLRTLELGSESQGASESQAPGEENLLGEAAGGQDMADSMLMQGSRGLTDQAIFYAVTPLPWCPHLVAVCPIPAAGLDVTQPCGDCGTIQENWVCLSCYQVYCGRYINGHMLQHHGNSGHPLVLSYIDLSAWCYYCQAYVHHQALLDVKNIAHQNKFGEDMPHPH
Method: as §1, §2, §3, §4

Row | Compound | IC50 [1] | IC50 [2]
1 | O=C(NO)c1ccc2c(c1)C[C@@]1(CC2)CCN(Cc2ccc(Cl)cn2)C1=O [Compound I-39, (S)-1′-((5-chloropyridin-2-yl)methyl)-N-hydroxy-2′-oxo-3,4-dihydro-1H-spiro[naphthalene-2,3′-pyrrolidine]-7-carboxamide] | > 500 nM | ≤ 100 nM
2 | O=C(NO)c1ccc2c(c1)C[C@]1(CC2)CCN(c2ccccn2)C1=O [Compound I-43, (R)—N-hydroxy-2′-oxo-1′-(pyridin-2-yl)-3,4-dihydro-1H-spiro[naphthalene-2,3′-pyrrolidine]-7-carboxamide] | > 500 nM | ≤ 100 nM
3 | O=C(NO)c1ccc2c(c1)C[C@@]1(CC2)CCN(c2ccccn2)C1=O [Compound I-44, (S)—N-hydroxy-2′-oxo-1′-(pyridin-2-yl)-3,4-dihydro-1H-spiro[naphthalene-2,3′-pyrrolidine]-7-carboxamide] | > 500 nM | ≤ 100 nM
4 | COCCn1c(CN2CC[C@@]3(CCc4ccc(C(=O)NO)cc4C3)C2=O)nc2ccccc21 [Compound I-45, (S)—N-hydroxy-1′-((1-(2-methoxyethyl)-1H-benzo[d]imidazol-2-yl)methyl)-2′-oxo-3,4-dihydro-1H-spiro[naphthalene-2,3′-pyrrolidine]-7-carboxamide] | > 500 nM | ≤ 100 nM
5 | COCCn1c(CN2CC[C@]3(CCc4ccc(C(=O)NO)cc4C3)C2=O)nc2ccccc21 [Compound I-46, (R)—N-hydroxy-1′-((1-(2-methoxyethyl)-1H-benzo[d]imidazol-2-yl)methyl)-2′-oxo-3,4-dihydro-1H-spiro[naphthalene-2,3′-pyrrolidine]-7-carboxamide] | 100 to 500 nM | ≤ 100 nM
6 | O=C(NO)c1ccc2c(c1)C[C@]1(CCNC1=O)CC2 [Compound I-47, (S)—N-hydroxy-2′-oxo-3,4-dihydro-1H-spiro[naphthalene-2,3′-pyrrolidine]-7-carboxamide] | > 500 nM | ≤ 100 nM
7 | O=C(NO)c1ccc2c(c1)C[C@@]1(CCNC1=O)CC2 [Compound I-48, (R)—N-hydroxy-2′-oxo-3,4-dihydro-1H-spiro[naphthalene-2,3′-pyrrolidine]-7-carboxamide] | > 500 nM | ≤ 100 nM
8 | O=C(NO)c1ccc2c(c1)C[C@@]1(CC2)CCN(Cc2cnc(Cl)s2)C1=O [Compound I-49, (S)-1′-((2-chlorothiazol-5-yl)methyl)-N-hydroxy-2′-oxo-3,4-dihydro-1H-spiro[naphthalene-2,3′-pyrrolidine]-7-carboxamide] | > 500 nM | ≤ 100 nM
9 | O=C(NO)c1ccc2c(c1)C[C@@]1(CC2)CCN(Cc2cnc(O)s2)C1=O [Compound I-50, (S)—N-hydroxy-1′-((2-hydroxythiazol-5-yl)methyl)-2′-oxo-3,4-dihydro-1H-spiro[naphthalene-2,3′-pyrrolidine]-7-carboxamide] | > 500 nM | ≤ 100 nM
10 | CCCN1CC[C@@]2(CCc3ccc(C(=O)NO)cc3C2)C1=O [Compound I-52, (S)—N-hydroxy-2′-oxo-1′-propyl-3,4-dihydro-1H-spiro[naphthalene-2,3′-pyrrolidine]-7-carboxamide] | > 500 nM | ≤ 100 nM
11 | O=C(NO)c1ccc2c(c1)C[C@@]1(CC2)CCN(CC2CCC2)C1=O [Compound I-53, (S)-1′-(cyclobutylmethyl)-N-hydroxy-2′-oxo-3,4-dihydro-1H-spiro[naphthalene-2,3′-pyrrolidine]-7-carboxamide] | > 500 nM | ≤ 100 nM
12 | CC(C)CCN1CC[C@@]2(CCc3ccc(C(=O)NO)cc3C2)C1=O [Compound I-54, (S)—N-hydroxy-1′-isopentyl-2′-oxo-3,4-dihydro-1H-spiro[naphthalene-2,3′-pyrrolidine]-7-carboxamide] | > 500 nM | ≤ 100 nM
13 | CC#CCN1CC[C@@]2(CCc3ccc(C(=O)NO)cc3C2)C1=O [Compound I-55, (S)-1′-(but-2-yn-1-yl)-N-hydroxy-2′-oxo-3,4-dihydro-1H-spiro[naphthalene-2,3′-pyrrolidine]-7-carboxamide] | > 500 nM | ≤ 100 nM

Next, values leading:

Row | IC50 [1] | IC50 [2] | Compound
14 | ≤ 100 nM | ≤ 100 nM | O=C(NO)c1ccc2c(c1)C[C@@]1(CC2)CCN(Cc2ccc(Cl)cc2)C1=O [Compound I-37, (S)-1′-(4-chlorobenzyl)-N-hydroxy-2′-oxo-3,4-dihydro-1H-spiro[naphthalene-2,3′-pyrrolidine]-7-carboxamide]
15 | > 500 nM | ≤ 100 nM | O=C(NO)c1ccc2c(c1)C[C@]1(CC2)CCN(Cc2ccc(Cl)cc2)C1=O [Compound I-38, (R)-1′-(4-chlorobenzyl)-N-hydroxy-2′-oxo-3,4-dihydro-1H-spiro[naphthalene-2,3′-pyrrolidine]-7-carboxamide]
16 | ≤ 100 nM | ≤ 100 nM | O=C(NO)c1ccc2c(c1)C[C@]1(CC2)CCN(Cc2ccc(Cl)cn2)C1=O [Compound I-40, (R)-1′-((5-chloropyridin-2-yl)methyl)-N-hydroxy-2′-oxo-3,4-dihydro-1H-spiro[naphthalene-2,3′-pyrrolidine]-7-carboxamide]
17 | > 500 nM | ≤ 100 nM | O=C(NO)c1ccc2c(c1)C[C@@]1(CC2)CCN(Cc2ccc(F)cc2)C1=O [Compound I-41, (S)-1′-(4-fluorobenzyl)-N-hydroxy-2′-oxo-3,4-dihydro-1H-spiro[naphthalene-2,3′-pyrrolidine]-7-carboxamide]
18 | ≤ 100 nM | ≤ 100 nM | O=C(NO)c1ccc2c(c1)C[C@]1(CC2)CCN(Cc2ccc(F)cc2)C1=O [Compound I-42, (R)-1′-(4-fluorobenzyl)-N-hydroxy-2′-oxo-3,4-dihydro-1H-spiro[naphthalene-2,3′-pyrrolidine]-7-carboxamide]
19 | ≤ 100 nM | ≤ 100 nM | CS(=O)(=O)c1ccc(CN2CC[C@]3(CCc4ccc(C(=O)NO)cc4C3)C2=O)cc1 [Compound I-51, (R)—N-hydroxy-1′-(4-(methylsulfonyl)benzyl)-2′-oxo-3,4-dihydro-1H-spiro[naphthalene-2,3′-pyrrolidine]-7-carboxamide]
